Activity calls are given as the source filed them. The calls are words filed in the database; no cut-off is given here.
Assays:
[1] = Inhibition of NF-kappaB-mediated transcription in human HepG cells; type: cell-based
[2] = Ratio of IC50 for NF-kappaB-mediated transcription in human HepG cells to GI50 for human HepG2 cells; type: functional
[3] = Inhibition of GRE-mediated transcription in human HepG cells; type: cell-based
HepG [4] = assay: Inhibition of DNA synthesis in human HepG cells; type: functional, cell-based
[5] = Inhibition of CRE-mediated transcription in human HepG cells; type: cell-based
[6] = Inhibition of AP1-mediated transcription in human HepG cells; type: cell-based
HepG [7] = assay: Inhibition of RNA synthesis in human HepG cells; type: functional, cell-based
[8] = Growth inhibition of human HepG cells; type: functional
CCRF-CEM = assay: Growth inhibition of human CEM cells; type: functional
[9] = Ratio of IC50 for AP1-mediated transcription in human HepG cells to GI50 for human HepG2 cells; type: functional
PANC-1 = assay: Growth inhibition of human PANC1 cells; type: functional
HepG [10] = assay: Inhibition of protein synthesis in human HepG cells; type: functional, cell-based
[11] = Ratio of IC50 for GRE-mediated transcription in human HepG cells to GI50 for human HepG2 cells; type: functional
[12] = Ratio of IC50 for CRE-mediated transcription in human HepG cells to GI50 for human HepG2 cells; type: functional

Structure (SMILES)	IC50 [1] [nM]	Ratio [2]	IC50 [3] [nM]	Activity (HepG [4])	IC50 [5] [nM]	IC50 [6] [nM]	Activity (HepG [7])	GI50 [8] [nM]	GI50 (CCRF-CEM) [nM]	Activity [9]	GI50 (PANC-1) [nM]	Activity (HepG [10])	Activity [11]	Activity [12]	Activity [2]
COc1ccc2c3c(c4cc(OC)c(OC)cc4c2c1)C[C@H]1CCCN1C3 [(-)-ANTOFINE]	7.3	1.5	24	Dose-dependent effect	167	135	inactive	4.9	5.2	28	2.2	Active	4.9	34	
COc1ccc2c3c(c4cc(OC)c(OC)cc4c2c1)CC1CCCCN1C3 (racemic)	1.4		10		25	18.6		1.5	2		0.5				
COc1cc2c3c(c4cc(OC)c(OC)cc4c2cc1OC)CN1CCC[C@H]1C3 [(S)-TYLOPHORINE]	41		229		> 300	> 300		11	15		12				
COc1ccc2c3c(c4cc5c(cc4c2c1)OCO5)C[C@H]1CCCN1C3	1240		2440	Dose-dependent effect	2570	3380		371	323		156	Active			
COc1ccc2c(CN3CCC[C@H]3CO)cc3cc4c(cc3c2c1)OCO4	21000		19000	Dose-dependent effect	24000	> 30000	Active	5400	2700		6200	inactive			
COc1cc2c3c(c4cc(OC)c(OC)cc4c2cc1OC)CN1CCC[C@@H]1C3 [TYLOPHORINE]	317		534		7910	2260		33	67		29				
COc1ccc2c(CN3CCCC[C@H]3CO)cc3cc4c(cc3c2c1)OCO4	10200		20700		18500	10000		3100	1600		2300				
COc1ccc2cc(C)c3cc(OC)c(OC)cc3c2c1	> 10000		> 15000		> 15000	> 15000		> 10000	> 2000		> 10000				
COc1ccc2cc(C[C@H]3CCCCN3)c3cc(OC)c(OC)cc3c2c1	2170		4500	Dose-dependent effect	12000	9780	Dose-dependent effect	1720	567	5.7	904	Dose-dependent effect	2.6	7	1.3
COc1ccc2c(CNCCCCCO)cc3cc4c(cc3c2c1)OCO4	7900		9200		8600	8700		2300	2000		2200				
COc1ccc2c(CN3CCCC[C@H]3C(=O)O)cc3cc4c(cc3c2c1)OCO4	7000		7200		12100	6200		3000	1700		2300				
COc1ccc2c(CN3CCC[C@H]3C(=O)O)cc3cc4c(cc3c2c1)OCO4	23500		> 30000		25000	27000		8600	6200		7400				

— ChEMBL document CHEMBL1142263, “Structural analogs of tylophora alkaloids may not be functional analogs” (Bioorg Med Chem Lett, 2008)
